The source of these data is US9486440B2, “Uses of indole-ketones or indolidones as neuro-protective drugs” (UNIVERSITY OF MACAU, priority 2011, dated 2016).

One data set relates to CGNs. In words: Low potassium-induced cell death in CGNs, MTT assay. In kind it is cell-based. The following applies: 5 mM KCl BME medium, 24 hours; sunitinib 0.1-2 μM. The method, then:
Cell viability was measured by MTT assay at 24 hours after low potassium challenge. […] After 24 hours of low potassium challenge, CGNs were assayed with an FDA/PI double staining. […] After 24 hours of low potassium challenge, CGNs were assayed with Hoechst staining. The number of apoptotic nuclei with condensed chromatin were counted from representative Hoechst staining photomicrographs and represented as a percentage of the total number of nuclei counted. […] Intracellular NO level was measured using DAF-FM diacetate as a probe at 4 hour after low potassium challenge. Data, expressed as percentage of control (CGNs were cultured in high potassium medium), were the mean±SEM of three separate experiments; *p<0.05 and **p<0.01 versus low potassium group in (A) and (D) or versus control in (C); ^##p<0.01 versus low potassium group in (C) (Turkey's test).
It was previously reported that low potassium could induce typical apoptosis in cerebellar granule neurons (CGNs) (Fu et al., 2008). […] Cell viability was measured with an MTT assay 24 hours after the low potassium treatment.

The subject of the next data set is th gene. In words: MPTP zebrafish, th gene expression by real-time PCR. Conditions: 200 μM MPTP, 48 hours. The class given is in vivo. As to the method: Wild-type zebrafish (AB strain) and Tg (fli-1:EGFP) transgenic zebrafish were maintained as described in the Zebrafish Handbook (Westerfield, 1993). Zebrafish embryos were generated by natural pair-wise mating (3-12 months old) and raised at 28.5° C. in embryo medium (13.7 mM NaCl, 540 μM KCl, pH 7.4, 25 μM Na2HPO4, 44 μM KH2PO4, 300 μM CaCl2, 100 μM MgSO4, 420 μM NaHCO3, pH 7.4). […] An equal concentration of DMSO in embryo medium was used as vehicle control in each experiment.
Healthy zebrafish embryos were picked out and […] manually at 1 day post fertilization (dpf) and distributed into a 12-well plate with 20 fish embryos or a 6-well microplate with 30 fish embryos in each well. […] Thus subsequent studies were done with 200 μM MPTP for whole-mount immunostaining and gene expression experiments.
Total RNA was extracted from 30 zebrafish larvae of each treatment group using the RNeasy Mini Kit (Qiagen, USA) according to the manufacturer's instructions. […] The expression of the mRNA was normalized to the amount of bactin1 using the relative quantification method described by the manufacturer. […]
For orientation: Real-time PCR tracks product formation cycle by cycle.

The subject of data set [1] is dopaminergic neurons in zebrafish larval. In words: MPTP zebrafish, TH-positive neuron count in paraffin sections. The class given is in vivo. As to the method: Healthy zebrafish embryos were picked and dechorionated manually at 1 day post fertilization (dpf) then distributed into a 12-well plate with 20 fish embryos or a 6-well microplate with 30 fish embryos in each well. In pilot experiments, several doses of MPTP were added to embryo medium (final concentration from 50 to 800 μM) and 1 dpf fish embryo were treated for 48 hours, The optimal dose used (200 μM) induced a significant decrease in brain diencephalic dopaminergic neurons without any detectable systematic toxicity (data not shown). Thus subsequent studies were performed with 200 μM MPTP for whole-mount immunostaining and gene expression experiments.
After drug treatment, fixation of zebrafish larval was performed as the procedure in whole-mount immunostaining. The fixed specimens were then mounted on 1% agarose blocks in a common linear plane to ensure that the microtome blade passes through each specimen simultaneously. The specimen-containing agarose was converted into a sectionable paraffin wax block and conducted processes as described by Sabaliauskas et al., 2006. […] The results were analyzed by counting the numbers of TH-positive cells at ×20 magnifications on a stereomicroscope (BX51, Olympus Corp. Japan). TH-positive cells in 3 matched sections of each zebrafish were counted and averaged. […]

The test system of another data set is nNOS protein expression. In words: Western blot of nNOS protein in CGNs after MPP+. In kind it is cell-based, rat. Conditions: 20 μM, 35 μM MPP+. As to the method: Briefly, neurons were harvested in a cell lysis buffer. Protein was separated on SDS-polyacrylamide gel and transferred onto polyvinyldifluoride membranes. After membrane blocking, proteins were detected using primary antibodies. After incubation at 4° C. overnight, signals were obtained after binding to chemiluminescent secondary antibodies. Blots were developed using an ECL plus kit (Amersham Bioscience, Aylesbury, UK) and exposed to Kodak autoradiographic films. All data were from three independent experiments and were expressed as the ratio to optical density (OD) values of the corresponding controls for statistical analyses.

For data set [2] the following is noted: phase I, 145 mg/m^2; cited from earlier work.

As for `Clc1ccc(Nc2nnc(Cc3ccncc3)c3ccccc23)cc1` [PTK787/ZK222584], the “low potassium-induced cell death (MTT)” value in the data set on CGNs was “at 3 and 10 μM both failed to block neuronal loss in vitro”.

Regarding `CN(C)c1ccc(C=C2C(=O)Nc3ccccc32)cc1` [SU4312, 3-[4-(dimethylamino)benzylidenyl]indolin-2-one], in the data set with th gene, the “th gene expression down-regulated by MPTP” value is “significantly alleviated the loss of DA neurons and decrease of th gene expression in a concentration-dependent manner”.

In the case of `Cc1cc(C)c(/C=C2\C(=O)Nc3ccccc32)[nH]1` [SU5416, (3Z)-3-[(3,5-dimethyl-1H-pyrrol-2-yl)methylidene]-1,3-dihydro-2H-indol-2-one], in data set [1] (200 μM MPTP, 1 μM SU5416, 2 days), the “MPTP-induced loss of dopaminergic neurons (TH-positive neuron count)” value was “obviously prevented the loss of dopaminergic neurons”. Moreover, the “number of dopaminergic neurons, drug alone” value in data set [1] (without MPTP) was “did not notably alter the number of dopaminergic neurons”. The “MPP+-increased expression of nNOS protein” value in the data set with nNOS protein expression is “reversed the increased expression of nNOS by MPP^+”. Besides, the “tolerability in patients with advanced malignancies” value in data set [2] is “well tolerated”.
